Values of other authors in patent US20030180282A1, “Method of treatment of thrombotic events” (priority 2002, published 2003).
Residues, ends and D or L forms follow the SMILES beside them.

Experiments:
[1] = coadministration with thrombolytic therapy

Compound	effect on reocclusion and recurrent ischemia [1]	incidence of death and reinfarction (IMPACT-AMI, all patients randomized, placebo 7.3%)	major hemorrhage (in vivo)
CC(=O)Oc1ccccc1C(=O)O [aspirin]	approximate halving of frequency	–	–
N=C(N)NCCCC[C@@H]1NC(=O)CCSSC[C@@H](C(N)=O)NC(=O)[C@@H]2CCCN2C(=O)[C@H](Cc2c[nH]c3ccccc23)NC(=O)[C@H](CC(=O)O)NC(=O)CNC1=O [eptifibatide] (HELM PEPTIDE1{[O=C(CCS[*:3])[*:2]].[N=C(N)NCCCC[C@H](N[*:1])C(=O)[*:2]].G.D.W.P.C.[am]}$PEPTIDE1,PEPTIDE1,1:R3-7:R3$$$V2.0)	–	8.0%	7.1%
